Measurements: patent publication US20210198277A1, “AMINE-SUBSTITUTED ARYL OR HETEROARYL COMPOUNDS” (Epizyme, Inc., priority 2016, published 2021)
Like-named read-outs stand apart in the source and are kept apart here.

What was measured:
human EHMT2 913-1193 = target: T1, human EHMT2 913-1193 (Homo sapiens, UniProt Q96KQ7); assay: EHMT2 enzyme assay on histone peptide substrate (EHMT2 PEP); type: biochemical
T1 construct: recombinant purified human EHMT2 913-1193, Viva; purchased Viva
T1 sequence (Q96KQ7 913-1193): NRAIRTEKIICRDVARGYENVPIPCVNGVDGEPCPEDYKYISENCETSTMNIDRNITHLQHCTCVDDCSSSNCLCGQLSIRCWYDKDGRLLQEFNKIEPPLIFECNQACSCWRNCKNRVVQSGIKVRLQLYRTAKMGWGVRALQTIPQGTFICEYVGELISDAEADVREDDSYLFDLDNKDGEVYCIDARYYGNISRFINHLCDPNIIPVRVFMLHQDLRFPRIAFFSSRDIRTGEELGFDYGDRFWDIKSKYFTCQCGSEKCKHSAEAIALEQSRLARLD
In short: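 Compounds were tested as 3-fold dilutions, 10 points from a 50 μM final top (2% DMSO), after 30-min preincubation with 0.031 nM enzyme in Bicine buffer pH 7.5. Transfer of ^3H-methyl from ^3H-SAM to biotinylated histone peptide ran 60 min at room temperature and was detected by streptavidin Flashplate scintillation.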

EHMT1 = target: T2, EHMT1 (Homo sapiens, UniProt Q9H9B1); assay: EHMT1 enzyme assay on peptide substrate (EHMT1 PEP); type: biochemical
T2 sequence (Q9H9B1 1-1298): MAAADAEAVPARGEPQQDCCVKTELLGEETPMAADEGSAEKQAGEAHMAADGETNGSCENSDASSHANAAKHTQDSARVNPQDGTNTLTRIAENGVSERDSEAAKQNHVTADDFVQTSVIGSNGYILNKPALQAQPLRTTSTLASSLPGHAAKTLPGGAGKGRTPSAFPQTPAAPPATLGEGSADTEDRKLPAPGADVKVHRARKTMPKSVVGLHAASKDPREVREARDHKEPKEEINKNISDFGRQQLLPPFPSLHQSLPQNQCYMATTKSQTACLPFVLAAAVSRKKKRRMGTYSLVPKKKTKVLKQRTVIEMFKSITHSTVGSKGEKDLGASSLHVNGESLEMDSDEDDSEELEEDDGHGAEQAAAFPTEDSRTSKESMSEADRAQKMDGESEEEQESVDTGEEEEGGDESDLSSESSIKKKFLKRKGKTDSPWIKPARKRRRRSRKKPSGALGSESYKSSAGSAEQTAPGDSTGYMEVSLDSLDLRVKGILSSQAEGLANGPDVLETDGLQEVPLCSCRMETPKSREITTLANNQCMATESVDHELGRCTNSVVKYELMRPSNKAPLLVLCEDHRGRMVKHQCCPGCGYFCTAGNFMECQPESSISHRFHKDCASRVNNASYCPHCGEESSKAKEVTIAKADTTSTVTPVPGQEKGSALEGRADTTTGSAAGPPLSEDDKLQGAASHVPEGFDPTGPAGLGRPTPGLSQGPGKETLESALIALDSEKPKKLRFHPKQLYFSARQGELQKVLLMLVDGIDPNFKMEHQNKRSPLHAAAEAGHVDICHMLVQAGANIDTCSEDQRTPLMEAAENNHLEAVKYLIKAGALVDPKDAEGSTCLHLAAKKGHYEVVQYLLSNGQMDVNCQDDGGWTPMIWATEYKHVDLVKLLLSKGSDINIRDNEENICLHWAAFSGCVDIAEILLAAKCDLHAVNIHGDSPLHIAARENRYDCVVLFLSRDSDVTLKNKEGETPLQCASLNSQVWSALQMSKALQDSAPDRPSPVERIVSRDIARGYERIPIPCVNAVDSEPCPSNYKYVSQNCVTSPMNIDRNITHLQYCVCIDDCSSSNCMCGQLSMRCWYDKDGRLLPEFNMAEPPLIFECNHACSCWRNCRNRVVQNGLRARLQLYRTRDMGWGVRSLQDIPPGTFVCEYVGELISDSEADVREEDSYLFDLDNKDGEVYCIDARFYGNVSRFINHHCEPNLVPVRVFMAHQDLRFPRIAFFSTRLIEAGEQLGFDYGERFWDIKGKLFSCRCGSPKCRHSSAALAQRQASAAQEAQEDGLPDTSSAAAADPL

[1] = recombinant human EHMT2 913-1193, histone H3 1-15 peptide, balanced conditions, read-out: EHMT2 PEP (IC50 μM)
[2] = Table VII, read-out: EHMT2 PEP IC50
[3] = Table VII, read-out: EHMT1 PEP IC50

SMILES	IC50 (human EHMT2 913-1193; [1])	IC50 (EHMT1; read-out: EHMT1 PEP (IC50 μM))	IC50 (human EHMT2 913-1193; [2])	IC50 (EHMT1; [3])
CNc1nc(C2CCCC2)c2cc(OC)c(OCCCN3CCCC3)cc2n1 [Compound 518, 4-cyclopentyl-6-methoxy-N-methyl-7-(3-(pyrrolidin-1-yl)propoxy)quinazolin-2-amine]	1 to 10 µM	1 to 10 µM	–	–
CNc1ccnc(Nc2ccc(OC)c(OCCOC3CC3)c2)n1 [Compound 453, N^2-(3-(2-cyclopropoxyethoxy)-4-methoxyphenyl)-N^4-methylpyrimidine-2,4-diamine]	> 10 µM	> 10 µM	–	–
CCn1nc(Nc2nccc3[nH]ccc23)cc1COCCN1CCCC1 [Compound 471]	1 to 10 µM	1 to 10 µM	–	–
CNc1cc(C)nc(Nc2ccc(OC)c([C@H]3C[C@H]3CN(C)C)c2)n1 [Compound 488]	0.1 to 1 µM	< 0.1 µM	–	–
CNc1cc(C)nc(Nc2ccc(OC)c(OC[C@@H]3CN(C)C[C@@H]3O)c2)n1 [Compound 492]	0.1 to 1 µM	< 0.1 µM	–	–
CNc1cc(C2CCOCC2)c2cc(OC)c(OC[C@H](O)CN3CCC3)cc2n1 [Compound 1108]	–	–	< 0.1 µM	< 0.1 µM
CNc1cc(C)nc(Nc2cnc(OC)c(OCCCN3CC4CC4C3)c2)n1 (stereo not drawn) [Compound 514]	0.1 to 1 µM	< 0.1 µM	–	–
CNc1ccnc(Nc2ccc(OC)c(OCc3nnc(C4CC4)[nH]3)c2)n1 [Compound 478]	> 10 µM	> 10 µM	–	–
CNc1cc(C)nc(Nc2ccc(OC)c(OCC3CN(C4CC4)C3)c2)n1 [Compound 510]	0.1 to 1 µM	< 0.1 µM	–	–
CNc1nc(C2CCN(C(C)C)CC2)c2cc(OC)c(OCCCN3CCCC3)cc2n1 [Compound 530]	< 0.1 µM	< 0.1 µM	–	–
CNc1cc(C)nc(Nc2ccc(OC)c(OCC3CCN(CCO)C3)c2)n1 (stereo not drawn) [Compound 461, 2-(3-((2-methoxy-5-((4-methyl-6-(methylamino)pyrimidin-2-yl)amino)phenoxy)methyl)pyrrolidin-1-yl)ethan-1-ol]	< 0.1 µM	< 0.1 µM	–	–
CNc1cc(C)nc(Nc2ccc(OC)c(OCCC3CCN(C)C3)c2)n1 (stereo not drawn) [Compound 503]	1 to 10 µM	1 to 10 µM	–	–
COc1cc2c(C3CCN(C)CC3)nc(N3CCCC3)nc2cc1OCCCN1CCCC1 [Compound 527]	< 0.1 µM	< 0.1 µM	–	–
CNc1cc(C2CCCC2)nc(Nc2ccc(OC)c(OCCCN3CCCC3)c2)n1 [Compound 458, 6-cyclopentyl-N^2-(4-methoxy-3-(3-(pyrrolidin-1-yl)propoxy)phenyl)-N^4-methylpyrimidine-2,4-diamine]	0.1 to 1 µM	0.1 to 1 µM	–	–
CNc1cc(C2CCOCC2)c2cc(OC)c(OCCCN3CCCC3)cc2n1 [Compound 524, 6-methoxy-N-methyl-4-(oxan-4-yl)-7-[3-(pyrrolidin-1-yl)propoxy]quinolin-2-amine]	< 0.1 µM	< 0.1 µM	–	–
CNc1cc(C)nc(Nc2ccc(OC)c(OCCCN3CC4CC4C3)c2)n1 (stereo not drawn) [Compound 506]	< 0.1 µM	< 0.1 µM	–	–
COc1cnc(Nc2nc(C)cc3[nH]ccc23)cc1OC[C@@H]1CCN(C2CC2)C1 [Compound 495]	0.1 to 1 µM	< 0.1 µM	–	–
CNc1cc(C)nc(Nc2ccc(OC)c(OC[C@H]3C[C@H](N(C)C)C3)c2)n1 [Compound 470]	> 10 µM	1 to 10 µM	–	–

SMILES	IC50 (human EHMT2 913-1193; [1])	IC50 (EHMT1; read-out: EHMT1 PEP (IC50 μM))	IC50 (human EHMT2 913-1193; [2])	IC50 (EHMT1; [3])
CNc1cc(C)nc(Nc2ccc(OC)c(OCC3CCN(C4CC4)C3)c2)n1 (stereo not drawn) [Compound 457]	< 0.1 µM	< 0.1 µM	–	–
COc1cnc(Nc2nc(C)cc3[nH]c(C)cc23)cc1OCCCN1CCCC1 [Compound 485]	< 0.1 µM	< 0.1 µM	–	–
CNc1ccnc(Nc2ccc(OC)c(OCc3ncn(C4CC4)n3)c2)n1 [Compound 480]	> 10 µM	> 10 µM	–	–
CNc1cc(C2CCOCC2)nc(Nc2ccc(OC)c(OCCCN3CCCC3)c2)n1 [Compound 459, N^2-(4-methoxy-3-(3-(pyrrolidin-1-yl)propoxy)phenyl)-N^4-methyl-6-(tetrahydro-2H-pyran-4-yl)pyrimidine-2,4-diamine]	1 to 10 µM	1 to 10 µM	–	–
CNc1cc(C)nc(Nc2ccc(OC)c(OCCCN3CCC3)c2)n1 [Compound 490]	< 0.1 µM	< 0.1 µM	–	–
CNc1cc(C2CCOCC2)c2cc(OC)c(CNCCN3CCCC3)cc2n1 [Compound 1111]	–	–	< 0.1 µM	< 0.1 µM
CNc1nc(C2CCN(C(C)C)CC2)c2cc(OC)c(OC[C@@H]3CCN(C4CC4)C3)cc2n1 [Compound 526]	< 0.1 µM	< 0.1 µM	–	–
CNc1nc(C2CCN(C)CC2)c2cc(OC)c(OCCCN3CC4CC4C3)cc2n1 (stereo not drawn) [Compound 532]	< 0.1 µM	< 0.1 µM	–	–
CNc1nc(C2CCN(CCO)CC2)c2cc(OC)c(OCCCN3CCCC3)cc2n1 [Compound 533]	< 0.1 µM	< 0.1 µM	–	–
CNc1cc(C(C)C)nc(Nc2ccc(OC)c(OCCCN3CCCC3)c2)n1 [Compound 483]	< 0.1 µM	< 0.1 µM	–	–
CNc1cc(C)nc(Nc2ccc(OC)c(OC[C@@H]3CN(C)C[C@H]3O)c2)n1 [Compound 491]	0.1 to 1 µM	< 0.1 µM	–	–
CNc1cc(C)nc(Nc2ccc(OC)c(OC[C@@H]3CCN(C4CC4)C3)c2)n1 (single isomer, unassigned) [Compound 481]	< 0.1 µM	< 0.1 µM	–	–
CNc1cc(C)nc(Nc2ccc(OC)c(OCCCCN(C)C)c2)n1 [Compound 502]	1 to 10 µM	0.1 to 1 µM	–	–
CNc1cc(C)nc(Nc2ccc(OC)c(OC3CCN(C4CC4)CC3)c2)n1 [Compound 466, N^2-(3-((1-cyclopropylpiperidin-4-yl)oxy)-4-methoxyphenyl)-N^4,6-dimethylpyrimidine-2,4-diamine]	> 10 µM	> 10 µM	–	–
CNc1cc(C)nc(Nc2ccc(OC)c(OCC3CCN(C4CCCC4)C3)c2)n1 (stereo not drawn) [Compound 456, N^2-(3-((1-cyclopentylpyrrolidin-3-yl)methoxy)-4-methoxyphenyl)-N^4,6-dimethylpyrimidine-2,4-diamine]	1 to 10 µM	1 to 10 µM	–	–
CNc1ccnc(Nc2ccc(OC)c(OC[C@@H]3CN(C)C[C@@H]3C)c2)n1 [Compound 477]	0.1 to 1 µM	0.1 to 1 µM	–	–
CNc1cc(C)nc(Nc2cnc(C3CC3)c(OCCCN3CCCC3)c2)n1 [Compound 516]	1 to 10 µM	1 to 10 µM	–	–
CNc1cc(C)nc(Nc2cnc(OC)c(CNCCN3CCC3)c2)n1 [Compound 1110]	–	–	0.1 to 1 µM	< 0.1 µM
